According to patent EP0863769B1 (priority 1996, dated 1998):

How the values were obtained:
A/England/157/83 M = assay type: binding, Influenza Viren; details: read-out: Affinität der Bindung an Virus, Kaff
A/NIB/23/89 M = assay type: binding, Influenza Viren; details: read-out: Affinität der Bindung an Virus, Kaff
A/NIB/50/89 M = assay type: binding, Influenza Viren; details: read-out: Affinität der Bindung an Virus, Kaff
B/England/222/82 M = assay type: binding, Influenza Viren; details: read-out: Affinität der Bindung an Virus, Kaff
[1] = system: menschlicher Influenza Viren der Typen A und B; assay type: binding
B/NIB/15/89 M = assay type: binding, Influenza Viren; details: read-out: Affinität der Bindung an Virus, Kaff
B/NIB/48/90 M = assay type: binding, Influenza Viren; details: read-out: Affinität der Bindung an Virus, Kaff
A/NIB/3/90 M = assay type: binding, Influenza Viren; details: read-out: Affinität der Bindung an Virus, Kaff
A/NIB/12/89 M = assay type: binding, Influenza Viren; details: read-out: Affinität der Bindung an Virus, Kaff
A/NIB/44/90 M = assay type: binding, Influenza Viren; details: read-out: Affinität der Bindung an Virus, Kaff
A/NIB/47/89 M = assay type: binding, Influenza Viren; details: read-out: Affinität der Bindung an Virus, Kaff

Q: With “Poly-N-(2-Hydroxyethyl)-acrylamid mit 20% mol. 6SLN [6SLN-PAA]” as the substance, how does the Kd (A/England/157/83 M) read?
A: Its Kd is 30 nM.

Q: What about the Kd (A/NIB/23/89 M) of the same substance?
A: Its Kd is 20 nM.

Q: And the Kd (A/NIB/50/89 M)?
A: The Kd was 20 nM.

Q: What about the Kd (B/England/222/82 M) of the same substance?
A: The Kd was 40 nM.

Q: And the “Inhibition der viralen Zelladhäsion” value [1]?
A: The value was “hervoragender Inhibitor aller authentischer Influenza Stämme”.

Q: What about the Kd (B/NIB/15/89 M) of the same substance?
A: Its Kd is 20 nM.

Q: And the Kd (B/NIB/48/90 M)?
A: Its Kd is 40 nM.

Q: And the Kd (A/NIB/3/90 M)?
A: The Kd was 10 nM.

Q: What about the Kd (A/NIB/12/89 M) of the same substance?
A: The Kd was 100 nM.

Q: What about the Kd (A/NIB/44/90 M) of the same substance?
A: The Kd was 10 nM.

Q: What about the Kd (A/NIB/47/89 M) of the same substance?
A: The Kd was 10 nM.
